Reference: patent publication US20230349008A1, “PAPER-BASED SAMPLE TESTING DEVICES AND METHODS THEREOF” (CORNELL UNIVERSITY, priority 2020, published 2023)

Columns and labels:
E. coli ATCC-25922 [1] = experiment: On-chip paper-based antimicrobial susceptibility testing (AST), resazurin colorimetric readout; assay type: cell-based, Escherichia coli; details: eight test zones: seven antibiotic concentrations plus no-antibiotic control; overnight 37° C.; 5×10^5 CFU/mL; hue threshold
Text: (§1) To functionalize the chips for AST, antibiotics and the growth-sensitive dye resazurin were pre-dried on the chip to enable testing with a single sample addition step. Antibiotics used consisted of ampicillin, meropenem, gentamicin, and ciprofloxacin (all sourced from MilliporeSigma). The growth-sensitive dye resazurin (PrestoBlue, Thermo Fisher) is a redox indicator that is reduced by metabolically active cells into resorufin, leading to significant colorimetric and fluorescent changes which provide a visual indication of bacterial growth as disclosed in Guerin, et al., “Application of resazurin for estimating abundance of contaminant-degrading micro-organisms,” Lett. Appl. […] Using a spectrophotometer (V-1200, VWR), the OD625 nm absorbance corresponding to a 0.5 McFarland standard was verified to be in the range of 0.08-0.13 22. […] To quantitatively analyze color change in the test zones following incubation, test chips were imaged using a smartphone and analyzed in MATLAB (MathWorks). Images were analyzed in the hue, saturation, value (HSV) color-space which we determined to be less sensitive to lighting conditions compared to the red, blue, green (RGB) color-space. For each test zone, the average hue value in a 160-pixel diameter circular region was calculated and a threshold was used to differentiate between zones with reduced (growth) and unreduced (no growth) resazurin. […]

E. coli BAA-2452 [2] = experiment: as above; assay type: cell-based, Escherichia coli; details: eight test zones: seven antibiotic concentrations plus no-antibiotic control; overnight 37° C.; 5×10^5 CFU/mL; hue threshold
Text: as §1

E. coli BAA-2452 [3] = details: vendor MIC interpretation; cited from earlier work
E. coli ATCC-25922 [4] = details: vendor MIC interpretation; cited from earlier work

CC1(C)S[C@@H]2[C@H](NC(=O)[C@H](N)c3ccccc3)C(=O)N2[C@H]1C(=O)O [ampicillin]
number of positive test zones (reduced resazurin, uninhibited growth) (E. coli ATCC-25922 [1]): no-antibiotic control positive only | number of positive test zones (reduced resazurin, uninhibited growth) (E. coli BAA-2452 [2]): six | susceptibility category via off-chip AST (E. coli BAA-2452 [3]): resistant | susceptibility category via off-chip AST (E. coli ATCC-25922 [4]): susceptible
